Assay results from patent US20140081025A1, “HETEROAROMATIC RING DERIVATIVE” (TAISHO PHARMACEUTICAL CO., LTD., priority 2011, published 2014).

What was measured:
[1] = target: T1, human orexin 2 receptor (hOX2R) (Homo sapiens, UniProt O43614); assay: Measurement of orexin antagonist activity (intracellular Ca2+ fluorescence, FDSS) in CHO cells expressing hOX2R; assay type: cell-based; details: CHO cells forcibly expressing hOX2R; ligand (two-amino-acid-substituted human orexin-A) 3 nM; Fluo 4-AM; read-out: IC50 value OX2
T1 construct: expressed in transfected cells; host or cells: Chinese hamster ovary (CHO) cells
T1 sequence (O43614 1-444): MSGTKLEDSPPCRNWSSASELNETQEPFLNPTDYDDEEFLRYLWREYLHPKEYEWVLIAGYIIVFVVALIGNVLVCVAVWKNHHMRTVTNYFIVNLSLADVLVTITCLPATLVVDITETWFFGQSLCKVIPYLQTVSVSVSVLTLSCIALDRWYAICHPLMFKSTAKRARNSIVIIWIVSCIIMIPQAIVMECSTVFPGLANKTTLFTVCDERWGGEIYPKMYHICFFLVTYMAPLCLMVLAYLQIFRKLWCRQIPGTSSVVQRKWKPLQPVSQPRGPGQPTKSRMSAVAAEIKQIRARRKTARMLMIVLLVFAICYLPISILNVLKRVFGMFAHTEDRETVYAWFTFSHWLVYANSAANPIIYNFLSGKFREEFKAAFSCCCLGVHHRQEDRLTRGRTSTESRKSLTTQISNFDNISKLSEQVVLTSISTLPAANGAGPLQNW
Method: (§1) The antagonist activity of a test compound against the human orexin 1 receptor (hOX1R) or orexin 2 receptor (hOX2R) was measured by the method described in the document (Toshikatsu Okumura et al., Biochemical and Biophysical Research Communications, 280, 976-981, 2001) with appropriate modification. Chinese hamster ovary (CHO) cells forcibly expressing hOX1R or hOX2R were seeded into each well of a 96-well Black clear bottom plate (Nunc A/S) in the amount of 20000 cells per well and were cultured in a Ham's F-12 medium (Invitrogen, Inc.) containing 0.1 mM MEM non-essential amino acids (Invitrogen, Inc.), 0.5 mg/mL G418 (Invitrogen, Inc.), and 10% fetal calf serum (Invitrogen, Inc.) at 37° C. in 5% CO2 for 16 hours. The medium was removed, and then added to each well was 100 μL of an assay buffer (pH 7.4) containing 0.5 μM Fluo 4-AM ester (Dojindo Laboratories), wherein the buffer was composed of 25 mM HEPES (Dojindo Laboratories), a Hanks' balanced salt solution (Invitrogen, Inc.), 0.1% bovine serum albumin (Sigma-Aldrich Co., LLC.), 2.5 mM probenecid (Sigma-Aldrich Co., LLC.), and 200 μg/mL Amaranth (Sigma-Aldrich Co., LLC.), followed by incubation at 37° C. in 5% CO2 for 60 min. The assay buffer containing Fluo 4-AM ester was removed, and then 150 μL of an assay buffer solution containing 10 mM of the test compound dissolved in dimethyl sulfoxide was added to each well, followed by incubation for 30 min.
(§2) A peptide (Pyr-[…]NH2: Peptide Institute, Inc.), which is a ligand having substitution of two amino acids in human orexin-A, was diluted with an assay buffer to a final concentration of 300 pM for hOX1R and to a final concentration of 3 nM for hOX2R. The reaction was started by adding 50 μL of this ligand solution to each well. The reaction was monitored by measuring the fluorescence of each well at each 1 second for 3 min with a Functional Drug Screening System (FDSS manufactured by Hamamatsu Photonics K.K.), and the antagonist activity was determined based on the maximum fluorescence value as an index of the intracellular Ca^2+ concentration. The antagonist activity of a test compound was calculated by assuming that the fluorescence value of the well containing only a dilution buffer was 100% and that the fluorescence value of the well containing a buffer not containing the ligand or any test compound was 0%. The 50% inhibitory concentration (IC50 value) of a test compound was determined from fluorescence values at various concentrations of the test compound.

[2] = target: T2, human orexin 1 receptor (hOX1R) (Homo sapiens, UniProt O43613); assay: Measurement of orexin antagonist activity (intracellular Ca2+ fluorescence, FDSS) in CHO cells expressing hOX1R; assay type: cell-based; details: CHO cells forcibly expressing hOX1R; ligand (two-amino-acid-substituted human orexin-A) 300 pM; Fluo 4-AM; read-out: IC50 value OX1
T2 construct: expressed in transfected cells; host or cells: Chinese hamster ovary (CHO) cells
T2 sequence (O43613 1-425): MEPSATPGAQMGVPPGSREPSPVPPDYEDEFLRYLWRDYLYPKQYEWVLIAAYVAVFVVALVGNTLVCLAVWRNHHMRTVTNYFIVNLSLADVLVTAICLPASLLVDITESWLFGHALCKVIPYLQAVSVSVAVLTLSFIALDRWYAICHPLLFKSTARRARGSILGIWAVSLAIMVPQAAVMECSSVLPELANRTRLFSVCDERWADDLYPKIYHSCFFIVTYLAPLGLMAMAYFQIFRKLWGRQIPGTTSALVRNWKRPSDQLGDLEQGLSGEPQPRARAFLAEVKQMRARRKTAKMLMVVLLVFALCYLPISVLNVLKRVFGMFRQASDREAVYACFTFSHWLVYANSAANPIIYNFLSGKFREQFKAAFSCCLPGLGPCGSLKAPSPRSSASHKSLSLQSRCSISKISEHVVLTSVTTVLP
Method: as §1, §2

IC50 [1]	IC50 [2]	SMILES
2.4 nM	0.5 nM	CCN(CCc1ccn(-c2ccc(F)cn2)n1)C(=O)c1ccccc1-n1nccn1 [Example 4, N-Ethyl-N-{2-[1-(5-fluoropyridin-2-yl)-1H-pyrazol-3-yl]ethyl}-2-(2H-1,2,3-triazol-2-yl)benzamide]
1230 nM	974 nM	CCN(CCc1noc(-c2ccc(F)cn2)n1)C(=O)c1cc(F)ccc1-c1ncccn1 [Example 46, N-ethyl-5-fluoro-N-{2-[5-(5-fluoropyridin-2-yl)-1,2,4-oxadiazol-3-yl]ethyl}-2-(pyrimidin-2-yl) benzamide]
380 nM	61.1 nM	CCN(CCc1ccn(-c2cc(C(F)(F)F)ccn2)n1)C(=O)c1ccccc1-n1nccn1 [Example 26, N-ethyl-2-(2H-1,2,3-triazol-2-yl)-N-{2-{1-[4-(trifluoromethyl)pyridin-2-yl]-1H-pyrazol-3-yl}ethyl}benzamide]
18.4 nM	1.1 nM	CCN(CCc1ccn(-c2ccc(F)cc2)n1)C(=O)c1cc(F)ccc1-c1ncccn1 [Example 27, N-ethyl-5-fluoro-N-{2-[1-(4-fluorophenyl)-1H-pyrazol-3-yl]ethyl}-2-(pyrimidin-2-yl) benzamide]
11.2 nM	1.3 nM	CCN(CCc1ccn(-c2ccc(F)c(F)c2)n1)C(=O)c1cc(F)ccc1-c1ncccn1 [Example 29, N-{2-[1-(3,4-difluorophenyl)-1H-pyrazol-3-yl]ethyl}-N-ethyl-5-fluoro-2-(pyrimidin-2-yl) benzamide]
11.6 nM	1.9 nM	CCN(CCc1noc(-c2ccc(F)cn2)n1)C(=O)c1cc(C)ccc1-n1nccn1 [Example 12, N-Ethyl-N-{2-[5-(5-fluoropyridin-2-yl)-1,2,4-oxadiazol-3-yl]ethyl}-5-methyl-2-(2H-1,2,3-triazol-2-yl)benzamide]
78 nM	1.7 nM	CCN(CCc1noc(-c2ccc(F)cc2)n1)C(=O)c1cc(F)ccc1-c1ncccn1 [Example 40, N-ethyl-5-fluoro-N-{2-[5-(4-fluorophenyl)-1,2,4-oxadiazol-3-yl]ethyl}-2-(pyrimidin-2-yl) benzamide]
13.7 nM	7.1 nM	CCN(CCc1ccn(-c2ccc(F)cn2)n1)C(=O)c1cc(C)ccc1-c1ncccn1 [Example 6, N-Ethyl-N-{2-[1-(5-fluoropyridin-2-yl)-1H-pyrazol-3-yl]ethyl}-5-methyl-2-(pyrimidin-2-yl)benzamide]
13.2 nM	1.7 nM	CCN(CCc1ccn(-c2ccc(F)cn2)n1)C(=O)c1cc(F)ccc1-c1ncccn1 [Example 20, N-ethyl-5-fluoro-N-{2-[1-(5-fluoropyridin-2-yl)-1H-pyrazol-3-yl]ethyl}-2-(pyrimidin-2-yl) benzamide]
5.9 nM	1.9 nM	Cc1ccc(-n2nccn2)c(C(=O)N(C)CCc2noc(-c3ccc(F)c(F)c3)n2)c1 [Example 36]
132 nM	10 nM	CN(CCc1ccn(-c2ccc(F)cn2)n1)C(=O)c1ccccc1-n1nccn1 [Example 14, N-{2-[1-(5-Fluoropyridin-2-yl)-1H-pyrazol-3-yl]ethyl}-N-methyl-2-(2H-1,2,3-triazol-2-yl)benzamide]
24.8 nM	17.8 nM	CCN(CCc1ccn(-c2cccc(C(F)(F)F)n2)n1)C(=O)c1ccccc1-n1nccn1 [Example 24, N-ethyl-2-(2H-1,2,3-triazol-2-yl)-N-(2-{1-[6-(trifluoromethyl)pyridin-2-yl]-1H-pyrazol-3-yl}ethyl)benzamide]
2 nM	1.1 nM	CCN(CCc1noc(-c2ccc(F)c(F)c2)n1)C(=O)c1cc(C)ccc1-n1nccn1 [Example 37, N-ethyl-N-{2-[5-(3,4-difluorophenyl)-1,2,4-oxadiazol-3-yl]ethyl}-5-methyl-2-(2H-1,2,3-triazol-2-yl)benzamide]
114 nM	11.6 nM	CN(CCc1noc(-c2ccc(F)cc2)n1)C(=O)c1ccccc1-n1nccn1 [Example 31, N-{2-[5-(4-Fluorophenyl)1,2,4-oxadiazol-3-yl]ethyl}-N-methyl-2-(2H-1,2,3-triazol-2-yl)benzamide]
119 nM	83.4 nM	Cc1ccc(-n2nccn2)c(C(=O)N(C)CCc2noc(-c3ccc(F)cn3)n2)c1 [Example 34, N-{2-[5-(5-fluoropyridin-2-yl)-1,2,4-oxadiazol-3-yl]ethyl}-N,5-dimethyl-2-(2H-1,2,3-triazol-2-yl)benzamide]
24.9 nM	11 nM	CCN(CCc1ccn(-c2ccc(F)cn2)n1)C(=O)c1cc(F)ccc1-n1nccn1 [Example 7, N-Ethyl-N-{2-[1-(5-fluoropyridin-2-yl)-1H-pyrazol-3-yl]ethyl}-5-fluoro-2-(2H-1,2,3-triazol-2-yl)benzamide]
6.1 nM	1.2 nM	CCN(CCc1noc(-c2ccc(F)cc2)n1)C(=O)c1cc(C)ccc1-n1nccn1 [Example 38, N-Ethyl-N-{2-[5-(4-fluorophenyl)-1,2,4-oxadiazol-3-yl]ethyl}-5-methyl-2-(2H-1,2,3-triazol-2-yl)benzamide]
77.4 nM	16.7 nM	Cc1ccc(-n2nccn2)c(C(=O)N(C)CCc2cc(-c3ccc(F)cn3)on2)c1 [Example 9, N-{2-[5-(5-Fluoropyridin-2-yl)-1,2-oxazol-3-yl]ethyl}-N,5-dimethyl-2-(2H-1,2,3-triazol-2-yl)benzamide]
613 nM	791 nM	CCN(CCc1noc(-c2ccc(F)cn2)n1)C(=O)c1ccccc1-n1nccn1 [Example 44, N-ethyl-N-{2-[5-(5-fluoropyridin-2-yl)-1,2,4-oxadiazol-3-yl]ethyl}-2-(2H-1,2,3-triazol-2-yl) benzamide]
10.8 nM	9.7 nM	CCN(CCc1noc(-c2ccc(F)c(F)c2)n1)C(=O)c1ccccc1-n1nccn1 [Example 42, N-ethyl-N-{2-[5-(3,4-difluorophenyl)-1,2,4-oxadiazol-3-yl]ethyl}-2-(2H-1,2,3-triazol-2-yl) benzamide]
191 nM	14.6 nM	CN(CCc1ccn(-c2ccc(F)cn2)n1)C(=O)c1cc(F)ccc1-n1nccn1 [Example 15, 5-Fluoro-N-{2-[1-(5-fluoropyridin-2-yl)-1H-pyrazol-3-yl]ethyl}-N-methyl-2-(2H-1,2,3-triazol-2-yl)benzamide]
159 nM	163 nM	CCN(CCc1noc(-c2ccc(F)cn2)n1)C(=O)c1cc(C)ccc1-c1ncccn1 [Example 45, N-ethyl-N-{2-[5-(5-fluoropyridin-2-yl)-1,2,4-oxadiazol-3-yl]ethyl}-5-methyl-2-(pyrimidin-2-yl)benzamide]
81.1 nM	8.1 nM	CCN(CCc1ccn(-c2cccc(C)n2)n1)C(=O)c1cc(F)ccc1-c1ncccn1 [Example 28, N-ethyl-5-fluoro-N-{2-[1-(6-methylpyridin-2-yl)-1H-pyrazol-3-yl]ethyl}-2-(pyrimidin-2-yl) benzamide]
